These results are taken from PubChem BioAssay (NCI).

The structures appear in SMILES notation.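 Interpolation was linear, between the two tested concentrations surrounding the appropriate level; five concentrations were tested over 48 hours in 96-well plates. GI50 = concentration required for 50% inhibition of growth. TGI: concentration producing complete growth inhibition.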

Among the test systems are OVCAR-8 ovarian; SW-620 colon; SNB-75 CNS; HCC-2998 colon; NCI-H522 lung; SK-MEL-5 melanoma; UACC-62 melanoma; CCRF-CEM leukemia; NCI-H226 lung; TK-10 renal.
Holding throughout (assay): NCI-60 cell line screen, 48 h

On to `NC(=O)Cc1ccccc1Oc1nccc(-c2c(-c3ccc(F)cc3)ncn2C2CCNCC2)n1`, for which the GI50 was more than 25 µM in the assay with OVCAR-8 ovarian; more than 25 µM in the assay with SW-620 colon; more than 19.1 µM with SNB-75 CNS; more than 25 µM in the assay on HCC-2998 colon; more than 25 µM in the assay on NCI-H522 lung; more than 25 µM in the assay on SK-MEL-5 melanoma. The GI50 in the assay on UACC-62 melanoma, with CCRF-CEM leukemia, in the assay on NCI-H226 lung and in the assay with TK-10 renal was more than 25 µM in each case. Moreover, the TGI in the assay with OVCAR-8 ovarian, in the assay on SW-620 colon, in the assay on SNB-75 CNS, with HCC-2998 colon, in the assay with NCI-H522 lung and with SK-MEL-5 melanoma was more than 25 µM throughout. Further, the TGI with UACC-62 melanoma, in the assay on CCRF-CEM leukemia, in the assay on NCI-H226 lung and in the assay with TK-10 renal was more than 25 µM in each case.
For `Cc1nc(NC(=O)COc2cccc(/C=C3\COc4ccccc4C3=O)c2)sc1C`, the GI50 in the assay with OVCAR-8 ovarian is 2.36 µM; in the assay with SW-620 colon it was 1.08 µM; with SNB-75 CNS, 5.49 µM; in the assay with HCC-2998 colon, 1.94 µM; in the assay with NCI-H522 lung it was 1.89 µM; in the assay on SK-MEL-5 melanoma, 1.86 µM. In addition, the GI50 in the assay on UACC-62 melanoma is 2.05 µM; in the assay on CCRF-CEM leukemia, 3.42 µM; with NCI-H226 lung it was 3.32 µM; in the assay on TK-10 renal, 2.31 µM. The TGI is 5.78 µM in the assay on OVCAR-8 ovarian; 2.39 µM in the assay on SW-620 colon; 18.7 µM in the assay with SNB-75 CNS; 3.49 µM in the assay on HCC-2998 colon; 4.41 µM in the assay with NCI-H522 lung; 3.81 µM in the assay on SK-MEL-5 melanoma. For the same compound, the TGI was 4.51 µM in the assay on UACC-62 melanoma, more than 100 µM in the assay on CCRF-CEM leukemia, 9.66 µM in the assay with NCI-H226 lung and 4.08 µM with TK-10 renal.
On to `Cc1cc(NC(=O)NC(=O)c2ccccc2[N+](=O)[O-])ccc1Oc1ncc(Cl)cn1`, for which the TGI in the assay with OVCAR-8 ovarian is more than 37.9 µM; in the assay on SW-620 colon, more than 100 µM; in the assay on SNB-75 CNS, 1.59 µM; in the assay on HCC-2998 colon it was 0.6 µM; with NCI-H522 lung, 0.201 µM; in the assay on SK-MEL-5 melanoma, 3.32 µM. The TGI in the assay with UACC-62 melanoma is more than 31.6 µM; with CCRF-CEM leukemia, more than 100 µM; in the assay on NCI-H226 lung, 12.8 µM; with TK-10 renal, more than 65.2 µM.
Take `O=C1OCC2=C1C(c1ccccc1)c1cc3c(cc1N2CCO)CCC3` (stereo not given): the GI50 with OVCAR-8 ovarian is 0.144 µM; in the assay on SW-620 colon, 0.0879 µM; in the assay with SNB-75 CNS, 0.0786 µM; with HCC-2998 colon, 0.115 µM; with NCI-H522 lung, 0.0284 µM; in the assay on SK-MEL-5 melanoma, 0.0762 µM. For the same compound, the GI50 is 0.111 µM in the assay on UACC-62 melanoma, 0.117 µM with CCRF-CEM leukemia, 1.02 µM in the assay with NCI-H226 lung and 1.52 µM in the assay with TK-10 renal. For the same compound, the TGI in the assay on OVCAR-8 ovarian was more than 25 µM; in the assay with SW-620 colon, more than 25 µM; in the assay on SNB-75 CNS, more than 25 µM; in the assay on HCC-2998 colon, 0.941 µM; in the assay with NCI-H522 lung it was 0.119 µM; with SK-MEL-5 melanoma, 5.41 µM. In addition, the TGI in the assay on UACC-62 melanoma, in the assay on CCRF-CEM leukemia, with NCI-H226 lung and with TK-10 renal was more than 25 µM throughout.
On to `O=C(O[C@H]1CN[C@H](C#Cc2cc3ncnc(Nc4ccc(Cc5ccccc5)cc4)c3s2)C1)N1CCOCC1`, for which the GI50 in the assay with OVCAR-8 ovarian was 5.33 µM; in the assay with SW-620 colon, 5.93 µM; in the assay with SNB-75 CNS, 1.87 µM; with HCC-2998 colon, 4.2 µM; in the assay on NCI-H522 lung, 0.482 µM; in the assay with SK-MEL-5 melanoma, 4.23 µM. The GI50 in the assay with UACC-62 melanoma is 6.25 µM; with CCRF-CEM leukemia it was 6.98 µM; with NCI-H226 lung, 5.01 µM; in the assay on TK-10 renal it was 0.548 µM. Moreover, the TGI with OVCAR-8 ovarian was more than 23.4 µM; with SW-620 colon, 17.7 µM; in the assay with SNB-75 CNS it was more than 19.4 µM; in the assay on HCC-2998 colon, 9.1 µM; with NCI-H522 lung, 4.2 µM; in the assay on SK-MEL-5 melanoma, 8.83 µM. For the same compound, the TGI in the assay on UACC-62 melanoma was more than 23.5 µM; with CCRF-CEM leukemia, more than 25 µM; in the assay with NCI-H226 lung it was 15.7 µM; with TK-10 renal it was 4.97 µM.
Regarding `C[C@H]1O[C@@H](O[C@H]2[C@@H](O)C[C@H](O[C@H]3[C@@H](O)C[C@H](O[C@H]4CC[C@]5(C)C6C[C@@H](O)[C@]7(C)[C@@H](C8=CC(=O)OC8)CC[C@]7(O)C6CC[C@@H]5C4)O[C@@H]3C)O[C@@H]2C)C[C@H](O)[C@@H]1O` (stereo not given in full), the GI50 in the assay on OVCAR-8 ovarian is 0.0788 µM; with SW-620 colon it was 0.049 µM; in the assay with SNB-75 CNS it was 0.08 µM; in the assay with HCC-2998 colon it was 0.147 µM; with NCI-H522 lung it was 0.015 µM; in the assay with SK-MEL-5 melanoma, 0.0478 µM. Further, the GI50 with UACC-62 melanoma is 0.103 µM; in the assay with CCRF-CEM leukemia it was 0.0216 µM; in the assay with NCI-H226 lung it was 0.102 µM; in the assay with TK-10 renal it was 0.0266 µM. In addition, the TGI was determined as 0.198 µM in the assay on OVCAR-8 ovarian; 0.174 µM with SW-620 colon; 0.221 µM in the assay on SNB-75 CNS; 0.486 µM in the assay with HCC-2998 colon; 0.0695 µM in the assay with NCI-H522 lung; 0.122 µM in the assay on SK-MEL-5 melanoma. In addition, the TGI in the assay on UACC-62 melanoma worked out at 0.228 µM; in the assay with CCRF-CEM leukemia it was 0.153 µM; with NCI-H226 lung, 0.191 µM; in the assay on TK-10 renal, 0.213 µM.
Turning to `NC(=O)c1cccc(N)c1`, the GI50 with OVCAR-8 ovarian was more than 100 µM; in the assay with SW-620 colon, more than 100 µM; in the assay on SNB-75 CNS it was 74.6 µM; with HCC-2998 colon it was more than 100 µM; in the assay on NCI-H522 lung it was more than 100 µM; with SK-MEL-5 melanoma, more than 100 µM. The GI50 in the assay on UACC-62 melanoma, with CCRF-CEM leukemia, in the assay on NCI-H226 lung and in the assay on TK-10 renal was more than 100 µM in each case. The TGI in the assay with OVCAR-8 ovarian, in the assay on SW-620 colon, in the assay with SNB-75 CNS, with HCC-2998 colon, with NCI-H522 lung and in the assay with SK-MEL-5 melanoma was more than 100 µM throughout. In addition, the TGI in the assay with UACC-62 melanoma, in the assay with CCRF-CEM leukemia, in the assay with NCI-H226 lung and in the assay on TK-10 renal was more than 100 µM throughout.
